Source: patent publication US8183243B2, “Melanocortin receptor agonists” (LG Life Sciences Ltd., priority 2008, dated 2012)

Target: T1, MC4R (Homo sapiens, UniProt P32245)
T1 construct: expressed in transfected cells; host or cells: HEK (Human Embryonic Kidney) permanent expression cell line HEK MC4R-Luc, co-expressing CRE-luciferase
Test: MCR agonistic activity (luciferase assay / cAMP accumulation assay) on MC4R
Format: cell-based
Settings: HEK cell lines expressing MC4R; method A (CRE-luciferase) or B (cAMP accumulation), not said which; read-out: EC50 value, agonistic activity to MC4R (range per group of Examples)
Experimental: Physiological activity of the compounds of the present invention was assessed by measuring agonistic activity as well as binding activity for melanocortin receptors (MCR) according to methods A and B explained as follows.
As one of the methods to measure MCR agonistic activity of the compound according to the present invention, the expression level of a marker gene (for example, luciferase) which increases proportionally according to the increase of cAMP content in the cell, was measured.
First, permanent expression HEK (Human Embryonic Kidney) cell lines (HEK MC1R-Luc, MC3R-Luc, MC4R-Luc or MC5R-Luc) expressing the MCR gene of each subtype together with luciferase gene (CRE-LUC) under the control of CRE (cAMP Response Element) were constructed. The above cell lines were incubated in an incubator with 6% CO2 atmosphere at 37° C. using selection medium, DMEM(Dulbecco's Modified Eagles Medium) containing 10% heat-inactivated fetal bovine serum (Gibco/BRL), 100 unit/ml, penicillin (Gibco/BRL), 100 unit/ml streptomycin (Gibco/BRL), and 200 μg/ml geneticin (G418) (Gibco/BRL). When the cell covered 70% of total surface of the culture dish with 100 mm diameter, the culture dish was rinsed one time with 10 ml Phosphate Buffered Saline(PBS) free of Ca^++ and Mg^++, and then 3 ml PBS solution containing 0.05% trypsin and 0.53 mM EDTA was added thereto. After the trypsin/EDTA solution was removed, the cell lines were incubated in an thermostatic incubator for 1 minute at 37° C., and resuspended in 10 ml selection medium and centrifuged for 5 minutes at 1500 rpm. The supernatant was discarded and the settled cells were resuspended in 5 ml selection medium free of Phenol Red. The resulting cell-suspension was plated onto each well of 96-well culture plates for Luminometer(Costar) with a concentration of 5×10^4 cell in 100 μl culture medium for each well and incubated in the incubator with 6% CO2 atmosphere at 37° C. for 18 hours. With MCR agonists (Example compounds) diluted stepwise using the above culture medium, the cells were treated under the condition of the final DMSO concentration not exceeding 1%, and incubated for 5 hours in the atmosphere of 6% CO2 at 37° C. Then, 50 μl Bright-Glo (Promega) was added to each well. After allowing the treated cells to be at room temperature for 15 minutes, luminescence was measured for each well by using luminometer (Victor). The level of luminescence induced by the stepwise-diluted agonist was converted to relative % value to those by the treatment of 10 nM NDP-MSH. The EC50 indicates the concentration of each agonist for inducing 50% of maximal luminescence by each agonist and this value was measured by a statistical software (Prizm).
B. cAMP Accumulation Assay
As another method to measure MCR agonistic activity of the compound according to the present invention, an increase of cAMP amount in the cell was measured.
First, permanent expression HEK (Human Embryonic Kidney) cell lines (HEK MC1R-Luc, MC3R-Luc, MC4R-Luc or MCSR-Luc) expressing the MCR gene of each subtype were plated onto each well of 24-well culture plates for Luminometer(Costar) with a concentration of 2×10^5 cell in 1 ml culture medium for each well, and then incubated in an incubator with 6% CO2 atmosphere at 37° C. for 24 hours. The medium was removed from each well followed by rinsing with 0.5 ml cold DMEM one time. With MCR agonists (Example compounds) diluted stepwise using 200 μl DMEM including 500 μM IBMX (isobutylmethylxanthine), the cells were treated under the condition of the final DMSO concentration not exceeding 1%, and incubated for 30 minutes in the atmosphere of 6% CO2 at 37° C. Then, the cAMP amount in each cell was measured using Amersham cAMP assay Kit (TRK432).
More specifically, 14.4 μl of 6M PCA (60%) was added to each well, and allowed to be in ice for 10 minutes, and 200 μl sample was taken from each well and transferred to microcentrifuge tube. […]

T1 sequence (P32245 whole entry, species assumed): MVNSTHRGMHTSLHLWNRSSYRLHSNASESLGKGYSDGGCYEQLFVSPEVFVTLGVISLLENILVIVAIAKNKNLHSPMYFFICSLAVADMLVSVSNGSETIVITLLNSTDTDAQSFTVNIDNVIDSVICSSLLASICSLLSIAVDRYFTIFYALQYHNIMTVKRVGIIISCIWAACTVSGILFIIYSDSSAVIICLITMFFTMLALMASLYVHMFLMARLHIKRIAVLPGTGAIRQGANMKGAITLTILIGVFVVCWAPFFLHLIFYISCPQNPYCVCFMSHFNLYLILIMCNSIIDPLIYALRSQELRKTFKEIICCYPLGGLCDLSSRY

Structure (SMILES) | EC50
CN1CCN(C(=O)[C@@H]2C[C@H](N(C(=O)C(C)(C)CO)C3CCC(C)(C)CC3)CN2C(=O)[C@@H]2CN(C(C)(C)C)C[C@H]2c2ccc(F)cc2F)CC1 [Example 15, N-{(3S,5S)-1-{[(3S,4R)-1-tert-butyl-4-(2,4-difluorophenyl)pyrrolidin-3-yl]carbonyl}-5-[(4-methylpiperazin-1-yl)carbonyl]pyrrolidin-3-yl}-N-(4,4-dimethylcyclohexyl)-3-hydroxy-2,2-dimethylpropanamide] | 0.1 to 10 nM
CN1CCN(C(=O)[C@@H]2C[C@H](N(C(=O)[C@@H]3CCCO3)[C@H]3CC[C@@H](C)CC3)CN2C(=O)[C@@H]2CN(C(C)(C)C)C[C@H]2c2ccc(Cl)cc2)CC1 [Example 16, (2S)-N-{(3S,5S)-1-{[(3S,4R)-1-tert-butyl-4-(4-chlorophenyl)pyrrolidin-3-yl]carbonyl}-5-[(4-methylpiperazin-1-yl)carbonyl]pyrrolidin-3-yl}-N-(cis-4-methylcyclohexyl)tetrahydrofuran-2-carboxamide] | 0.1 to 10 nM
CN1CCN(C(=O)[C@@H]2C[C@H](N(C(=O)C(C)(C)C)[C@H]3CC[C@@H](C)CC3)CN2C(=O)[C@@H]2CN(C(C)(C)C)C[C@H]2c2ccc(Cl)cc2)CC1 [Example 17, N-{(3S,5S)-1-{[(3S,4R)-1-tert-butyl-4-(4-chlorophenyl)pyrrolidin-3-yl]carbonyl}5-[(4-methylpiperazin-1-yl)carbonyl]pyrrolidin-3-yl}-2,2-dimethyl-N-(cis-4-methylcyclohexyl)propanamide] | 0.1 to 10 nM
CN1CCN(C(=O)[C@@H]2C[C@H](N(C(=O)C(C)(C)C)[C@H]3CC[C@@H](C)CC3)CN2C(=O)[C@@H]2CN(C(C)(C)C)C[C@H]2c2ccc(F)cc2F)CC1 [Example 18, N-{(3S,5S)-1-{[(3S,4R)-1-tert-butyl-4-(2,4-difluorophenyl)pyrrolidin-3-yl]carbonyl}-5-[(4-methylpiperazin-1-yl)carbonyl]pyrrolidin-3-yl}-2,2-dimethyl-N-(cis-4-methylcyclohexyl)propanamide] | 0.1 to 10 nM
CN1CCN(C(=O)[C@@H]2C[C@H](N(C(=O)C(C)(C)CO)[C@H]3CC[C@@H](C)CC3)CN2C(=O)[C@@H]2CN(C(C)(C)C)C[C@H]2c2ccc(Cl)cc2)CC1 [Example 19, N-{(3S,5S)-1-{[(3S,4R)-1-tert-butyl-4-(4-chlorophenyl)pyrrolidin-3-yl]carbonyl}-5-[(4-methylpiperazin-1-yl)carbonyl]pyrrolidin-3-yl}-3-hydroxy-2,2-dimethyl-N-(cis-4-methylcyclohexyl)propanamide] | 0.1 to 10 nM
CN1CCN(C(=O)[C@@H]2C[C@H](N(C(=O)C(C)(C)CO)[C@H]3CC[C@@H](C)CC3)CN2C(=O)[C@@H]2CN(C(C)(C)C)C[C@H]2c2ccc(F)cc2F)CC1 [Example 20, N-{(3S,5S)-1-{[(3S,4R)-1-tert-butyl-4-(2,4-difluorophenyl)pyrrolidin-3-yl]carbonyl}-5-[(4-methylpiperazin-1-yl)carbonyl]pyrrolidin-3-yl}-3-hydroxy-2,2-dimethyl-N-(cis-4-methylcyclohexyl)propanamide] | 0.1 to 10 nM
CN1CCN(C(=O)[C@@H]2C[C@H](N(C(=O)[C@@H]3CCCO3)[C@H]3CC[C@@H](C)CC3)CN2C(=O)[C@@H]2CN(C(C)(C)C)C[C@H]2c2ccc(F)cc2F)CC1 [Example 21, (2S)-N-{(3S,5S)-1-{[(3S,4R)-1-tert-butyl-4-(2,4-difluorophenyl)pyrrolidin-3-yl]carbonyl}-5-[(4-methylpiperazin-1-yl)carbonyl]pyrrolidin-3-yl}-N-(cis-4-methylcyclohexyl)tetrahydrofuran-2-carboxamide] | 0.1 to 10 nM
CCN1CCN(C(=O)[C@@H]2C[C@H](N(C(=O)[C@@H]3CCCO3)[C@H]3CC[C@@H](C)CC3)CN2C(=O)[C@@H]2CN(C(C)(C)C)C[C@H]2c2ccc(Cl)cc2)CC1 [Example 22, (2S)-N-{(3S,5S)-1-{[(3S,4R)-1-tert-butyl-4-(4-chlorophenyl)pyrrolidin-3-yl]carbonyl}-5-[(4-ethylpiperazin-1-yl)carbonyl]pyrrolidin-3-yl}-N-(cis-4-methylcyclohexyl)tetrahydrofuran-2-carboxamide] | 0.1 to 10 nM

Same assay, conditions: specific activities of representative compounds; HEK cell lines expressing MC4R; method A or B, not said which; read-out: EC50

Structure (SMILES) | EC50
CN1CCN(C(=O)[C@@H]2C[C@H](N(C(=O)[C@@H]3CCCO3)[C@H]3CC[C@@H](C)CC3)CN2C(=O)[C@@H]2CN(C(C)(C)C)C[C@H]2c2ccc(Cl)cc2)CC1 [Example 16, (2S)-N-{(3S,5S)-1-{[(3S,4R)-1-tert-butyl-4-(4-chlorophenyl)pyrrolidin-3-yl]carbonyl}-5-[(4-methylpiperazin-1-yl)carbonyl]pyrrolidin-3-yl}-N-(cis-4-methylcyclohexyl)tetrahydrofuran-2-carboxamide] | 0.4 nM
